Experimental data published in patent publication US4820834A, “Benzodiazepine analogs” (priority 1987, dated 1989).
Like-named read-outs stand apart in the source and are kept apart here.

Legend:
[1] = biological target: T1, CCK receptor (pancreas) (Rattus norvegicus, UniProt P30551); experiment: CCK Receptor Binding (Pancreas): inhibition of ^125 I-CCK-33 binding; set-up: species or system Male Sprague-Dawley rats
T1 construct: The whole pancreas was dissected free of fat tissue and was homogenized; from tissue; host or cells: rat pancreas membranes (Sprague-Dawley)
T1 sequence (P30551 1-444): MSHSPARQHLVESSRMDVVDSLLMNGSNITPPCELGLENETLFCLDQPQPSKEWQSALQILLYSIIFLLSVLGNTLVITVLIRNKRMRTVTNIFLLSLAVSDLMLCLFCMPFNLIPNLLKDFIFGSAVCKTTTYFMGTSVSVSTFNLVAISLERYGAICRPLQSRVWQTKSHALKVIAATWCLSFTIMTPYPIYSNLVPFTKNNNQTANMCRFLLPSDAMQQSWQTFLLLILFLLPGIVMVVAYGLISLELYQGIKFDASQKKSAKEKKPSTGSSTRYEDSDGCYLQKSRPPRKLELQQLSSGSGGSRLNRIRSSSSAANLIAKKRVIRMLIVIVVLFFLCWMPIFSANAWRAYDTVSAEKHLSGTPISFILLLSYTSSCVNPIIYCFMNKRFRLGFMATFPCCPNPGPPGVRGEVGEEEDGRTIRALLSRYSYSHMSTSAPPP
In short: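 Bound ^125I-CCK-33 was counted in pellets after a 30 min, 37° C incubation followed by centrifugation. Membranes came from male Sprague-Dawley rat pancreas, assayed in Tris HCl pH 7.7 containing DTT, bacitracin, PMSF and o-phenanthroline. For Scatchard analysis, tracer was diluted with rising unlabelled CCK-33.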

[2] = biological target: T2, CCK receptor (brain, cerebral cortex) (Cavia porcellus, UniProt H0VZC5); experiment: biochemical; assay type: binding, Male Hartley guinea pigs
T2 construct: Cerebral cortex was dissected and used as a receptor source; from tissue; host or cells: guinea pig cerebral cortex membranes (male Hartley)
T2 sequence (H0VZC5 1-426): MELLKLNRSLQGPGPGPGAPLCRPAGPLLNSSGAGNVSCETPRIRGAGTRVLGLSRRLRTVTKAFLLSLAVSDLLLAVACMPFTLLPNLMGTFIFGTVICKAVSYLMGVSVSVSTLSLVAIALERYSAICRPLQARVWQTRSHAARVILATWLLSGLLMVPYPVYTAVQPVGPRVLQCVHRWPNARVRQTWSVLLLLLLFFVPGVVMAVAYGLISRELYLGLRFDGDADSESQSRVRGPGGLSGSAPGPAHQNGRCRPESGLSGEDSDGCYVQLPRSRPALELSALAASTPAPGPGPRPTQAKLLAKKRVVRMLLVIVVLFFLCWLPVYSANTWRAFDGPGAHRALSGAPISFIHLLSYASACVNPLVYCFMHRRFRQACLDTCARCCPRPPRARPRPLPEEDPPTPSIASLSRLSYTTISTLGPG
In short: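 Binding of [radiolabeled] CCK-33 measured by gamma counting of centrifuged pellets after 2 h at 25°C. Membranes came from guinea pig brain cortex, suspended in 10 mM HEPES, 5 mM MgCl2, 1 mM EGTA, 0.25 mg/ml bacitracin, 0.4% BSA.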

[3] = biological target: T3, Gastrin receptor (gastric glands) (Cavia porcellus, UniProt H0VZC5); experiment: Gastrin Receptor Binding in Guinea Pig Gastric Glands; set-up: species or system guinea pig (male Hartley)
T3 construct: The washed guinea pig gastric glands prepared as above were resuspended; from tissue; host or cells: guinea pig gastric mucosal glands (male Hartley)
T3 sequence (H0VZC5 1-426): T2 sequence (H0VZC5 1-426)

[4] = rat pancreas membranes, ^125 I-CCK-33, 37° C., 30 minutes; read-out: IC50 ^125 I-CCK Pancreas
[5] = guinea pig cerebral cortex, ^125 I-CCK-33, 25° C., 2 hours; read-out: IC50 ^125 I-CCK Brain
[6] = ^125 I-gastrin, 25° C., 30 minutes, read-out: IC50 ^125 I-Gastrin Gastric Glands
[7] = IC50 ^125 I-CCK Pancreas, rat pancreas membranes, ^125 I-CCK-33, 37° C., 30 minutes
[8] = IC50 ^125 I-CCK Brain, guinea pig cerebral cortex, ^125 I-CCK-33, 25° C., 2 hours
[9] = IC50 ^125 I-Gastrin Gastric Glands, 25° C., 30 minutes

Compound `O=C(O)CCN1C(=O)[C@@H](Cc2c[nH]c3ccccc23)N=C(c2ccccc2F)c2ccccc21` [Example 103, (2-Carboxyethyl)-1,3-dihydro-5-(2-fluorophenyl)-3(R)-(3'-indolyl)methyl-2H-1,4-benzodiazepin-2-one] has an IC50 ([1]; read-out: IC50 ^125 I-CCK Pancreas; rat pancreas membranes, ^125 I-CCK-33, 37° C., 30 minutes) of 1400 nM, an IC50 ([2]; read-out: IC50 ^125 I-CCK Brain; guinea pig cerebral cortex, ^125 I-CCK-33, 25° C., 2 hours) of 11000 nM and an IC50 ([3]; read-out: IC50 ^125 I-Gastrin Gastric Glands, 25° C., 30 minutes) of 5800 nM.

Compound `CCOC(=O)CN1C(=O)C(NC(=O)Nc2ccc(Cl)cc2)N=C(c2ccccc2F)c2ccccc21` (stereo not drawn) [Example 194, 3-((((4-Chlorophenyl)amino)carbonyl)amino)-5-(2-fluorophenyl)-2,3-dihydro-2-oxo-1H-1,4-benzodiazepin-1-acetic acid ethyl ester] has an IC50 [1, 4] of 220 nM, an IC50 [2, 5] of 1.2 nM and an IC50 [3, 6] of 4 nM.

Work on `CN1C(=O)C(C(O)c2c[nH]c3ccccc23)N=C(c2ccccc2)c2ccccc21` (racemic) [Example 47, 1,3-Dihydro-3(RS)-[1-hydroxy-1-(3'-indolyl)]methyl-1-methyl-5-phenyl-2H-1,4-benzodiazepin-2-one] yielded an IC50 [1, 7] of 24000 nM, an IC50 [2, 5] of 40000 nM and an IC50 [3, 6] of 24000 nM.

Compound `CN1C(=O)C(C(O)c2ccsc2)N=C(c2ccccc2)c2ccccc21` (racemic) [Example 49, 1,3-Dihydro-3-(RS)-[1-hydroxy-1-(3-thienyl)]methyl-1-methyl-5-phenyl-2H-1,4-benzodiazepin-2-one] has an IC50 [1, 7] greater than 100000 nM, an IC50 [2, 5] of 100000 nM and an IC50 [3, 6] of 34000 nM.

`COc1ccccc1NC(=O)NC1N=C(c2ccccc2)c2ccccc2N(C)C1=O` (stereo not drawn) [Example 278, N-(2,3-Dihydro-1-methyl-2-oxo-5-phenyl-1H-1,4-benzodiazepin-3-yl)-N'-(2-methoxyphenyl)-urea] showed an IC50 [1, 4] of 600 nM, an IC50 [2, 5] of 1200 nM and an IC50 [3, 6] of 1000 nM.

For `CN1C(=O)C(NC(=O)Oc2ccc([N+](=O)[O-])cc2)N=C(c2ccccc2F)c2ccccc21` (stereo not drawn) [Example 245, (5-(2-Fluorophenyl)-2,3-dihydro-1-methyl-2-oxo-1H-1,4-benzodiazepin-3-yl)-carbamic acid-4-nitrophenyl ester], the IC50 [1, 7] was 7200 nM, the IC50 [2, 8] was 92000 nM and the IC50 [3, 9] was 12000 nM.

In the case of `CCOC(=O)CN1C(=O)C(NC(=O)c2cc3ccccc3[nH]2)N=C(c2ccccc2F)c2ccccc21` (stereo not drawn) [Example 214, 5-(2-Fluorophenyl)-2,3-dihydro-3-((1H-indol-2-ylcarbonyl)amino)-2-oxo-1H-1,4-benzodiazepine-1-acetic acid ethyl ester], the IC50 [1, 4] is reported as 3 nM, the IC50 [2, 8] is reported as 220 nM and the IC50 [3, 9] is reported as 120 nM.

`CC(C(=O)O)N1C(=O)C(NC(=O)OCc2ccccc2)N=C(c2ccccc2)c2ccccc21` (stereo not drawn) [Example 243, 2,3-Dihydro-alpha-methyl-2-oxo-5-phenyl-3-((phenylmethoxy)carbonyl)amino-1H-1,4-benzodiazepine-1-acetic acid] gave an IC50 [1, 7] of 680 nM, an IC50 [2, 5] of 2800 nM and an IC50 [3, 6] of 3600 nM.

`CC(C)(C)OC(=O)N[C@H](Cc1c[nH]c2ccccc12)C(=O)NC1N=C(c2ccccc2)c2ccccc2NC1=O` (mixture of isomers) [Example 96, 3(RS)-(BOC-D-tryptophanyl)amino-1,3-dihydro-5-phenyl-2H-1,4-benzodiazepin-2-one] was tested, and the IC50 [1, 7] was 17000 nM, the IC50 [2, 8] was greater than 100000 nM and the IC50 [3, 9] was 500000 nM.

Compound `CCN(CC)C(=O)CN1C(=O)C(NC(=O)OCc2ccccc2)N=C(c2ccccc2)c2ccccc21` (stereo not drawn) [Example 222] has an IC50 [1, 7] of 2200 nM, an IC50 [2, 5] of 150 nM and an IC50 [3, 6] of 230 nM.

For `CN1C(=O)[C@@H](NC(=O)Nc2ccccc2Cl)N=C(c2ccccc2)c2ccccc21` [Example 276, (S)-N-(2,3-Dihydro-1-methyl-2-oxo-5-phenyl-1H-1,4-benzodiazepin-3-yl)-N'-(2-chlorophenyl)-urea], the IC50 [1, 7] was 0.39 nM, the IC50 [2, 5] was 280 nM and the IC50 [3, 6] was 240 nM.

`O=C(Cc1ccc(Cl)cc1)NC1N=C(c2ccccc2)c2ccccc2NC1=O` (stereo not drawn) [Example 240, 4-Chloro-N-(2,3-dihydro-2-oxo-5-phenyl-1,4-benzodiazepin-3-yl)-benzeneacetamide] was tested, and the IC50 [1, 7] was 1300 nM, the IC50 [2, 5] was 2900 nM and the IC50 [3, 6] was 7000 nM.
